Experimental data reported in patent US20070010402A1, “Novel herbicides, usage thereof, novel thienopyrimidine derivatives, intermediates of the same, and process for production thereof” (NIHON NOHYAKU CO., LTD.,, priority 2002, published 2007).

What was measured:
[1] = test system: Chenopodium album; experiment: Field soil treatment test (Test Example 2); format: in vivo; conditions: soil spray after seeding, wettable powder, active ingredient 10 g/a, 21st day from the treatment
Experimental: (§1) The herbicidal effect was evaluated in terms of herbicidal rate obtained from the following equation: Herbicidal rate (%)=[1−(Weight of weeds above the ground in a treated plot)/(Weight of weeds above the ground in a non-treated plot)]×100 and was expressed by herbicidal index according to the following criteria. [table] Alluvial soil from a field was put in a resin-made vat having an area of 200 cm^2. After fertilization, the seeds of Digitaria ciliaris, Chenopodium album and Polygonum lapathifolium were cast on the soil and uniformly covered with the soil. The wettable powder obtained in Formulation Example 1 was diluted with water and a predetermined amount thereof was sprayed uniformly to the soil by means of a small-sized power pressure spray so as to give 10 g of the active ingredient per an are. Thereafter, cultivation was further continued in the greenhouse, and the herbicidal effect was examined on the 21st day from the treatment. The results obtained are shown in Table 8 (the compound numbers in Table 8 correspond to those in Tables 1 to 6).

[2] = test system: Digitaria ciliaris; experiment: Field soil treatment test (Test Example 2); format: in vivo; conditions: soil spray after seeding, wettable powder, active ingredient 10 g/a, 21st day from the treatment
Experimental: as §1

[3] = test system: Polygonum lapathifolium; experiment: Field soil treatment test (Test Example 2); format: in vivo; conditions: soil spray after seeding, wettable powder, active ingredient 10 g/a, 21st day from the treatment
Experimental: as §1

[4] = test system: Brassica juncea; experiment: Field foliar treatment test (Test Example 1); format: in vivo; conditions: foliar spray at 1.0- to 2.0-leaf stage, wettable powder, active ingredient 10 g/a, 21st day from the treatment
Experimental: (§2) Alluvial soil from a field was put in a resin-made vat having an area of 200 cm^2. After fertilization, the seeds of Echinochloa crus-galli, Brassica juncea, and Ipomoea purpurea were cast on the soil and uniformly covered with the soil. Then, cultivation was continued in a greenhouse, and when the weeds to be tested reached the 1.0- to 2.0-leaf stage, the wettable powder obtained in Formulation Example 1 was diluted with water and a predetermined amount thereof was sprayed uniformly to the weeds by means of a small-sized power pressure spray to give 10 g of the active ingredient per an are. Thereafter, cultivation was further continued in the greenhouse, and the herbicidal effect was examined on the 21st day from the treatment. The results obtained are shown in Table 7 (the compound numbers in Table 7 correspond to those in Table 1 to 6). The herbicidal effect was evaluated in terms of herbicidal rate obtained from the following equation: Herbicidal rate (%)=[1−(Weight of weeds above the ground in a treated plot)/(Weight of weeds above the ground in a non-treated plot)]×100 and was expressed by herbicidal index according to the following criteria. [table]

[5] = test system: Ipomoea purpurea; experiment: Field foliar treatment test (Test Example 1); format: in vivo; conditions: foliar spray at 1.0- to 2.0-leaf stage, wettable powder, active ingredient 10 g/a, 21st day from the treatment
Experimental: as §2

[6] = test system: Echinochloa crus-galli; experiment: Field foliar treatment test (Test Example 1); format: in vivo; conditions: foliar spray at 1.0- to 2.0-leaf stage, wettable powder, active ingredient 10 g/a, 21st day from the treatment
Experimental: as §2

Row | Structure (SMILES) | Herbicidal effect Chenopodium album (herbicidal index) [1] | Herbicidal effect Digitaria ciliaris (herbicidal index) [2] | Herbicidal effect Polygonum lapathifolium (herbicidal index) [3] | melting point | also measured
1 | Cc1cc2c(-c3cccc(C(F)(F)F)c3)nc(OC(C)(C)C)nc2s1 [6-27] | 5 (91 to 100) | 5 (91 to 100) | 4 (71 to 90) |  | 
2 | Cc1cc2c(-c3ccc(F)c(C(F)(F)F)c3)nc(OC(C)C)nc2s1 [6-30] | 5 (91 to 100) | 5 (91 to 100) | 5 (91 to 100) |  | 
3 | Cc1cc2c(-c3cccc(OC(F)(F)F)c3)nc(OC(C)C)nc2s1 [6-36] | 5 (91 to 100) | 5 (91 to 100) | 5 (91 to 100) |  | 
4 | CCOc1nc(-c2ccccc2C(F)(F)F)c2cc(C)sc2n1 [6-43] | 5 (91 to 100) | 5 (91 to 100) | 2 (31 to 50) |  | 
5 | C=CCOc1nc(-c2cccc(C(F)(F)F)c2)c2cc(C)sc2n1 [6-88] | 5 (91 to 100) | 5 (91 to 100) | 5 (91 to 100) |  | 
6 | Cc1cc2c(-c3cccc(C(F)(F)F)c3)nc(OC(C)C(F)(F)F)nc2s1 (stereo not drawn) [6-100] | 5 (91 to 100) | 5 (91 to 100) | 5 (91 to 100) |  | 
7 | Cc1cc2c(-c3cccc(C(F)(F)F)c3)nc(OCC(F)(F)C(F)(F)F)nc2s1 [6-101] | 5 (91 to 100) | 5 (91 to 100) | 4 (71 to 90) |  | 
8 | Cc1cc2c(-c3cccc(C(F)(F)F)c3)nc(OCC(F)(F)C(F)F)nc2s1 [6-103] | 5 (91 to 100) | 5 (91 to 100) | 5 (91 to 100) |  | 
9 | Cc1cc2c(-c3cccc(OC(F)(F)F)c3)nc(OCCF)nc2s1 [6-107] | 5 (91 to 100) | 5 (91 to 100) | 5 (91 to 100) |  | 
10 | Cc1cc2c(-c3cccc(OC(F)(F)F)c3)nc(OCC(F)(F)F)nc2s1 [6-108] | 5 (91 to 100) | 5 (91 to 100) | 5 (91 to 100) |  | 
11 | Cc1cc2c(-c3cccc(OC(F)(F)F)c3)nc(OC(C)C(F)(F)F)nc2s1 (stereo not drawn) [6-110] | 5 (91 to 100) | 5 (91 to 100) | 5 (91 to 100) |  | 
12 | Cc1cc2c(-c3cccc(OC(F)(F)F)c3)nc(OCC(F)(F)C(F)(F)F)nc2s1 [6-111] | 5 (91 to 100) | 5 (91 to 100) | 5 (91 to 100) |  | 
13 | Cc1cc2c(-c3cccc(SC(F)(F)F)c3)nc(OCC(F)(F)C(F)F)nc2s1 [6-119] | 5 (91 to 100) | 5 (91 to 100) | 5 (91 to 100) |  | 
14 | Cc1cc2c(-c3cccc(OC(F)F)c3)nc(OCC(F)(F)F)nc2s1 [6-121] | 5 (91 to 100) | 5 (91 to 100) | 5 (91 to 100) |  | 
15 | Cc1cc2c(-c3cccc(OC(F)F)c3)nc(OCC(F)F)nc2s1 [6-122] | 5 (91 to 100) | 5 (91 to 100) | 5 (91 to 100) |  | 
16 | Cc1cc2c(-c3cccc(C(F)(F)F)c3)nc(OS(C)(=O)=O)nc2s1 [6-148] | 5 (91 to 100) | 5 (91 to 100) | 4 (71 to 90) |  | 

Row | Structure (SMILES) | Herbicidal effect Chenopodium album (herbicidal index) [1] | Herbicidal effect Digitaria ciliaris (herbicidal index) [2] | Herbicidal effect Polygonum lapathifolium (herbicidal index) [3] | melting point | also measured
17 | Cc1cc2c(-c3cccc(C(F)(F)F)c3)nc(-n3cccc3)nc2s1 [6-189] | 4 (71 to 90) | 5 (91 to 100) | 3 (51 to 70) |  | 
18 | Cc1cc2c(-c3cccc(C(F)(F)F)c3)nc(-n3ccc(C(F)(F)F)n3)nc2s1 [6-198] | 5 (91 to 100) | 5 (91 to 100) | 5 (91 to 100) |  | 
19 | Cc1cc2c(-c3cccc(OC(F)(F)F)c3)nc(-n3ccc(C(F)(F)F)n3)nc2s1 [6-199] | 5 (91 to 100) | 5 (91 to 100) | 5 (91 to 100) |  | 
20 | Cc1cc2c(-c3cccc(C(F)(F)F)c3)nc(O)nc2s1 [Compound No. 4-3, 6-methyl-4-[3-(trifluoromethyl)phenyl]thieno[2,3-d]pyrimidine-2-ol] |  |  |  | 251 to 253 °C (dec.) | 
21 | Cc1cc2c(-c3cccnc3Cl)nc(O)nc2s1 [Compound No. 4-22, 4-(2-chloropyridine-3-yl)-6-methylthieno[2,3-d]pyrimidine-2-ol] |  |  |  | > 300 °C | 
22 | Cc1cc2c(-c3cccc(C(F)(F)F)c3)nc(Cl)nc2s1 [Compound No. 5-4, 2-chloro-6-methyl-4-[3-(trifluoromethyl)phenyl]thieno[2,3-d]pyrimidine] |  |  |  | 108 °C | 
23 | Cc1cc2c(-c3sccc3C)nc(Cl)nc2s1 [Compound No. 5-22, 2-chloro-6-methyl-4-(3-methylthiophen-2-yl)thieno[2,3-d]pyrimidine] |  |  |  | 127 °C | 
24 | Cc1cc2c(-c3sc(C=O)cc3C)nc(Cl)nc2s1 [Compound No. 5-23, 2-chloro-4-(5-formyl-3-methylthiophen-2-yl)-6-methylthieno[2,3-d]pyrimidine] |  |  |  | 204 to 206 °C (dec.) | 
25 | Cc1cc2nc(Cl)nc(-c3cccc(C(F)(F)F)c3)c2s1 [Compound No. 5-34, 2-chloro-6-methyl-4-[3-(trifluoromethyl)phenyl]thieno[3,2-d]pyrimidine] |  |  |  | 174 to 176 °C (dec.) | 
26 | Cc1cc2c(-c3cccc(C(F)(F)F)c3)ncnc2s1 [Compound No. 6-9, 6-methyl-4-[3-(trifluoromethyl)phenyl]thieno[2,3-d]pyrimidine] |  |  |  | 70 to 72 °C | 
27 | Cc1cc2c(Oc3cccc(C(F)(F)F)c3)nc(CCC(F)(F)F)nc2s1 [Compound No. 6-130, 6-methyl-4-[3-(trifluoromethyl)phenoxy]-2-(3,3,3-trifluoropropyl)thieno[2,3-d]pyrimidine] |  |  |  | 85 °C | Herbicidal effect Brassica juncea (herbicidal index) [4]: 4 (71 to 90); Herbicidal effect Ipomoea purpurea (herbicidal index) [5]: 3 (51 to 70); Herbicidal effect Echinochloa crus-galli (herbicidal index) [6]: 2 (31 to 50)
28 | CNc1nc(-c2ccc(C(F)(F)F)cc2)c2cc(C)sc2n1 [Compound No. 6-168, 6-methyl-2-(methylamino)-4-[4-(trifluoromethyl)phenyl]thieno[2,3-d]pyrimidine] |  |  |  | 233 °C | 
29 | CSc1nc(-c2ccc(C(F)(F)F)cc2)c2cc(C)sc2n1 [Compound No. 6-171, 6-methyl-2-methylthio-4-[4-(trifluoromethyl)phenyl]thieno[2,3-d]pyrimidine] |  |  |  | 113 °C | 
30 | Cc1cc2c(-c3cccc(C(F)(F)F)c3)nc(C(=O)O)nc2s1 [Compound No. 6-180, 6-methyl-4-[3-(trifluoromethyl)phenyl]thieno[2,3-d]pyrimidine-2-carboxylic acid] |  |  |  | 226 to 227 °C (dec.) | 
31 | Cc1cc2nc(OC(C)C)nc(-c3cccc(C(F)(F)F)c3)c2s1 [Compound No. 6-231, 2-isopropoxy-6-methyl-4-[3-(trifluoromethyl)phenyl]thieno[3,2-d]pyrimidine] |  |  |  | 106 °C | Herbicidal effect Brassica juncea (herbicidal index) [4]: 5 (91 to 100); Herbicidal effect Ipomoea purpurea (herbicidal index) [5]: 5 (91 to 100); Herbicidal effect Echinochloa crus-galli (herbicidal index) [6]: 4 (71 to 90)
